Patent US11591336B2 (Relay Therapeutics, Inc., priority 2017, dated 2023)
Structures can show the parent of a compound that is named as a salt.

target: SHP2 (Homo sapiens (Human), UniProt Q06124); experiment: SHP2 Allosteric Inhibition Assay (DiFMUP prompt fluorescence); type: biochemical; settings: 0.25 nM SHP2 activated with 0.5 μM peptide IRS1_pY1172(dPEG8)pY1222; substrate DiFMUP 100 μM; 25° C.
Sequence (Q06124 whole entry): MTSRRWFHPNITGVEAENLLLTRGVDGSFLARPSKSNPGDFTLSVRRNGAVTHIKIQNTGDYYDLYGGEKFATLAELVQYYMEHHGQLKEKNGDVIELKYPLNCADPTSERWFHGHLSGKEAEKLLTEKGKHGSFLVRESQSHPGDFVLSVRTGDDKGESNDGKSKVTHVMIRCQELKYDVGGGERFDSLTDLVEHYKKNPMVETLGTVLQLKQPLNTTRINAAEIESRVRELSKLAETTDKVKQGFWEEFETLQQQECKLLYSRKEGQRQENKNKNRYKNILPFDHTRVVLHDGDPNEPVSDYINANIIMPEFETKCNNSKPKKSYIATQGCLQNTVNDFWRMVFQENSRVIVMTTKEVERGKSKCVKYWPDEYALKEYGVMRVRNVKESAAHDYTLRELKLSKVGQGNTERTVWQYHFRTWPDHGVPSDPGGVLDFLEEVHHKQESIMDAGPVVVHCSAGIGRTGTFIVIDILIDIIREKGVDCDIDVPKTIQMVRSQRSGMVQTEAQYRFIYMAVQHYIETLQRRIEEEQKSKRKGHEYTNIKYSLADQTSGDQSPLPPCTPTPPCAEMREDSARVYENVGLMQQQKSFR

Structure (SMILES)	IC50 [µM]
CC1(CN)CCN(c2cnc3c(N4CCCc5cc(S(C)(=O)=O)ccc54)n[nH]c3n2)CC1 [Compound 92]	< 1
CC1CCN(c2n[nH]c3nc(N4CCC(C)(CN)CC4)cnc23)c2ccc(C#N)cc21 (centres unmarked) [Compound 93]	< 1
CC1(CN)CCN(c2cnc3c(N4CCC(c5ccccc5)c5ccccc54)n[nH]c3n2)CC1 (centres unmarked) [Compound 96]	< 1
CCCC1(CN)CCN(c2cnc3c(N4CCCc5ncccc54)n[nH]c3n2)CC1 [Compound 97, (1-(3-(3,4-dihydro-1,5-naphthyridin-1(2H)-yl)-1H-pyrazolo[3,4-b]pyrazin-6-yl)-4-propylpiperidin-4-yl)methanamine dihydrochloride]	< 1
CCC1(CN)CCN(c2cnc3c(N4CCCc5ncccc54)n[nH]c3n2)CC1 [Compound 98, (1-(3-(3,4-dihydro-1,5-naphthyridin-1(2H)-yl)-1H-pyrazolo[3,4-b]pyrazin-6-yl)-4-ethylpiperidin-4-yl)methanamine dihydrochloride]	< 1
CC1(CN)CCN(c2cnc3c(N4CCC(CO)c5ccccc54)n[nH]c3n2)CC1 (centres unmarked) [Compound 99, (1-(6-(4-(Aminomethyl)-4-methylpiperidin-1-yl)-1H-pyrazolo[3,4-b]pyrazin-3-yl)-1,2,3,4-tetrahydroquinolin-4-yl)methanol]	< 1
CNC(=O)C1CCN(c2n[nH]c3nc(N4CCC(C)(CN)CC4)cnc23)c2ccccc21 (centres unmarked) [Compound 100, 1-(6-(4-(Aminomethyl)-4-methylpiperidin-1-yl)-1H-pyrazolo[3,4-b]pyrazin-3-yl)-N-methyl-1,2,3,4-tetrahydroquinoline-4-carboxamide]	< 1
COC1(CN)CCN(c2cnc3c(N4CCCc5ncccc54)n[nH]c3n2)CC1 [Compound 101, (1-(3-(3,4-dihydro-1,5-naphthyridin-1(2H)-yl)-1H-pyrazolo[3,4-b]pyrazin-6-yl)-4-methoxypiperidin-4-yl)methanamine]	< 1
CC1(CN)CCN(c2cnc3c(N4CCC(C(F)(F)F)c5ccccc54)n[nH]c3n2)CC1 (centres unmarked) [Compound 106]	< 1
CNC(=O)c1cccc2c1CCN2c1n[nH]c2nc(N3CCC(C)(CN)CC3)cnc12 [Compound 107, 1-(6-(4-(aminomethyl)-4-methylpiperidin-1-yl)-1H-pyrazolo[3,4-b]pyrazin-3-yl)-N-methylindoline-4-carboxamide]	< 1
CC1(CN)CCN(c2cnc3c(N4CCc5c(C(N)=O)cccc54)n[nH]c3n2)CC1 [Compound 108, 1-(6-(4-(aminomethyl)-4-methylpiperidin-1-yl)-1H-pyrazolo[3,4-b]pyrazin-3-yl)indoline-4-carboxamide]	< 1
CC1CCN(c2n[nH]c3nc(N4CCC(C)(CN)CC4)cnc23)c2ccc(C(N)=O)cc21 (centres unmarked) [Compound 112, 1-(6-(4-(aminomethyl)-4-methylpiperidin-1-yl)-1H-pyrazolo[3,4-b]pyrazin-3-yl)-4-methyl-1,2,3,4-tetrahydroquinoline-6-carboxamide formate]	< 1
CNC(=O)c1ccc2c(c1)CCN2c1n[nH]c2nc(N3CCC(C)(CN)CC3)cnc12 [Compound 113, 1-(6-(4-(aminomethyl)-4-methylpiperidin-1-yl)-1H-pyrazolo[3,4-b]pyrazin-3-yl)-N-methylindoline-5-carboxamide]	< 1
CC1(CN)CCN(c2cnc3c(N4CCc5cc(C(N)=O)ccc54)n[nH]c3n2)CC1 [Compound 114, 1-(6-(4-(aminomethyl)-4-methylpiperidin-1-yl)-1H-pyrazolo[3,4-b]pyrazin-3-yl)indoline-5-carboxamide]	< 1
CC1(CN)CCN(c2cnc3c(N4CCC(C#N)c5ccccc54)n[nH]c3n2)CC1 (centres unmarked) [Compound 117]	< 1
CC1(CN)CCN(c2cnc3c(N4CCc5ccccc54)n[nH]c3n2)CC1 [Compound 118]	< 1
CC1(CN)CCN(c2cnc3c(N4CCC(O)c5ccccc54)n[nH]c3n2)CC1 (centres unmarked) [Compound 119, 1-(6-(4-(aminomethyl)-4-methylpiperidin-1-yl)-1H-pyrazolo[3,4-b]pyrazin-3-yl)-1,2,3,4-tetrahydroquinolin-4-ol]	< 1
